Source: patent US8722649B2, “Alpha-chloro and alpha-bromo phosphonate analogs of lysophosphatidic acid and methods of making and using thereof” (University of Utah Research Foundation, priority 2007, dated 2014)
Read-outs that look alike come from different tables or passages of the source.

What was measured:
[1] = biological target: T1, recombinant ATX-HA (Homo sapiens, UniProt Q13822); assay: Autotaxin assay (FS-3 hydrolysis); format: biochemical; conditions: 10.0 μM, FS-3 substrate, preliminary single-dose screen
T1 construct: HA
Description: Autotaxin Assay. This assay utilizes FS-3 (Echelon Biosciences, Inc. Salt Lake City, Utah) as substrate and recombinant ATX-HA. For analysis, 50 μl of ATX-HA (0.25 μg) in assay buffer (Tris 50 mM, NaCl 140 mM, KCl 5mM, CaCl2 1 mM, MgCl2 1 mM, pH 8.0) was mixed with 25 μl of FS-3 (1 μM final concentration in assay buffer) and 25 μl of test compound dissolved in assay buffer containing 1:1.5 bovine serum albumin in 96-well plate. FS-3 fluorescence was monitored using FLEXstation fluorescence plate reader at a time zero and after 2 hours of incubation at 37° C. at excitation and emission wavelengths of 485 nm and 538 nm, respectively. Data was normalized to the corresponding vehicle control and the mean±standard deviation of triplicate wells were expressed as percent ATX inhibition. IC50, and Ki values were calculated as described.

[2] = biological target: T2, human LPA1 (Homo sapiens, UniProt Q92633); assay: Ca2+ mobilization assay, LPA1; format: cell-based; conditions: for EC50: RH7777 cells stably expressing LPA1, agonist mode; for IC50: antagonist mode vs 200 nM LPA, PA = partial antagonist, read-out: LPA1 IC50
T2 construct: expressed in transfected cells
T2 sequence (Q92633 whole entry): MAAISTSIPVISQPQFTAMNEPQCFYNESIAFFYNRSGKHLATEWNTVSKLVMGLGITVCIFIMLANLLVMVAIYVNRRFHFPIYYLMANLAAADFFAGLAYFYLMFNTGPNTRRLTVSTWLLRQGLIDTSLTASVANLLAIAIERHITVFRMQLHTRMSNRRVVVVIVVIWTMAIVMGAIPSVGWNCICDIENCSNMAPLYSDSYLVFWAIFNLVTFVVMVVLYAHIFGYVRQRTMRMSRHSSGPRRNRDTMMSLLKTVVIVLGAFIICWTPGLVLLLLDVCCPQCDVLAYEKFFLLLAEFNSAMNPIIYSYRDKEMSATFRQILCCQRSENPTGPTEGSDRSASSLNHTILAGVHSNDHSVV
Description: (§1) Receptor activation using Ca^2+ mobilization assay for diastereomers of 1 (also represented as 19b). The rat hepatoma (RH7777) cell lines individually expressing either LPA1, LPA2, LPA3 or LPA5 receptors and Chinese hamster ovary (CHO) cell line were analyzed to examine agonism and antagonism. […] CHO cells stably expressing either vector or LPA4 were kindly gifted from Dr. Shimizu (University of Tokyo, Tokyo, Japan).
(§2) Stable transformants of LPA1/2/3 receptors. RH7777 cells stably expressing each receptor were plated onto poly-L-lysine (PLL) (0.1 mg/mL)-coated black-wall clear-bottom 96-well plates (Corning Incorporated Life Sciences, Acton, Mass.) at a density of 5×10^4 cells/well and cultured overnight. The following day, the culture medium was replaced with modified Krebs buffer (120 mM NaCl, 5 mM KCl, 0.62 mM MgSO4, 1.8 mM CaCl2, 10 mM HEPES, 6 mM glucose, pH 7.4), and the cells were serum starved for 6 h. Subsequently, cells were loaded with Fura-2 AM (Invitrogen, Carlsbad, Calif.) for 35 min in modified Krebs buffer containing 2% (v/v) pluronic acid.
(§3) After incubating the cells with Fura-2 AM, the cells were rinsed with Krebs buffer and changes in the intracellular Ca^2+ concentration were monitored by determining the ratio of emitted light intensities at 520 nm in response to excitation at 340 and 380 nm using FLEXstation II (Molecular Devices, Sunnyvale, Calif.). Each well was monitored for 80-120 sec. For testing agonist activity of the compounds, the test compounds were added automatically after 15 sec of baseline measurement. To determine antagonist properties, varying concentrations of the compounds were mixed with a constant concentration of LPA and responses were monitored. Each test was performed in quadruplicate. EC50, IC50, and Ki values were calculated by fitting a sigmoid function to data points with the nonlinear curve-fitting feature of KaleidaGraph (Synergy Software, Essex Junction, Vt.).
Receptor activation using Ca^2+ mobilization assay. The assay for mobilization of intracellular Ca^2+ was performed as described. Briefly, rat hepatoma RH7777 cells stably expressing human LPA1, LPA2, or LPA3, and CHO cells stably expressing LPA4, were loaded with Fura-2 AM (Molecular Probes). Using a FLEXStation (Molecular Devices, Sunnyvale, Calif.), changes in intracellular Ca^2+ concentration were monitored. Ligand-induced changes in fluorescence were monitored for 80-120 seconds. Ca^2+ transients were quantified automatically by calculating the difference between maximum and baseline ratio values for each sample. To determine antagonist properties, different concentrations of each analogue were mixed with either palmitoyl (16:0) or oleoyl (18:1) LPA (200 nM for LPA1 and LPA3, 10 nM for LPA2, and 400 nM for LPA4) (Avanti Polar Lipids, Inc., […], Ala.) and responses were recorded. Each test was performed in quadruplicate. EC50, IC50, and Ki values were calculated as described. The ligand properties of the compounds were evaluated using Ca^2+ mobilization assay for assessing the activation/inhibition of LPA1, LPA2, and LPA3 expressed in RH7777 cells and LPA4 expressed in CHO cells. Table l illustrates calcium responses elicited through the activation of human LPA1, LPA2, LPA3 and LPA4 receptors. These cell lines have been used extensively for the characterization of LPA GPCR ligands because RH7777 cells are intrinsically unresponsive to LPA and CHO cells show minimal endogenous responses to LPA unless transfected with LPA4.

[3] = biological target: T3, PPARγ (Homo sapiens, UniProt P37231); assay: PPARγ activation assay (PPRE-Acox-Rluc reporter in CV-1 cells); format: cell-based; conditions: 10 μM test analogue, 20 h
T3 construct: expressed in transfected cells; host or cells: CV-1 cells, transient (LipofectAMINE 2000)
T3 sequence (P37231 1-505): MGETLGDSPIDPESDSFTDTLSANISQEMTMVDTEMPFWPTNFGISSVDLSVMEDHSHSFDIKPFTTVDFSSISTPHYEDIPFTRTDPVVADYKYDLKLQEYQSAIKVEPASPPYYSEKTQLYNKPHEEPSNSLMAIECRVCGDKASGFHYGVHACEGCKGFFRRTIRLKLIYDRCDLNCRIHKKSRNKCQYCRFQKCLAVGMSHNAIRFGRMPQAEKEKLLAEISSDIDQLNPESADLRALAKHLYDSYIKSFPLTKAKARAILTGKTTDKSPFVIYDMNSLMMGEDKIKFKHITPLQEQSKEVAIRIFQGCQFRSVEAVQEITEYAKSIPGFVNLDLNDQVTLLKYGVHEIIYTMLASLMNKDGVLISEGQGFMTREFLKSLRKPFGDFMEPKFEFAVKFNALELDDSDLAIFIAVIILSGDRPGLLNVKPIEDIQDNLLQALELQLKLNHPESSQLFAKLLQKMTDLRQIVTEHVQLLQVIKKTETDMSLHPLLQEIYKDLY
Description: PPARγ activation assay. PPARγ activation was performed using CV-1 cells transfected with an acyl-coenzyme A oxidase-luciferase (PPRE-Acox-Rluc) reporter gene construct as previously reported. Briefly, CV-1 cells were plated in 96-well plates at a density of 1×10^4 cells per well in Dulbecco's modified Eagle's medium supplemented with 10% fetal bovine serum. The next day, the cells were transiently transfected with 125 ng of pGL3-PPRE-Acox-Rluc, 62.5 ng of pcDNA3.1 PPARγ, and 12.5 ng of pSV-β-galactosidase (Promega) using LipofectAMINE 2000 (Invitrogen). Twenty-four hours after transfection, cells were treated with OptiMEM (Invitrogen) containing 10 μM Rosiglitazone or 10 μM of the test analogue dissolved in DMSO for 20 h. Luciferase and β-galactosidase activities were measured with Steady-Glo® Luciferase Assay System (Promega) and the Galacto-Light Plus™ system (Applied Biosystems), respectively. Samples were run in quadruplicate and the mean ±standard errors were calculated. Data are representative of at least two independent transfections.

[4] = biological target: T4, human LPA2 (Homo sapiens, UniProt Q9HBW0); assay: Ca2+ mobilization assay, LPA2; format: cell-based; conditions: for IC50: read-out: LPA2 IC50
T4 construct: expressed in transfected cells
T4 sequence (Q9HBW0 whole entry): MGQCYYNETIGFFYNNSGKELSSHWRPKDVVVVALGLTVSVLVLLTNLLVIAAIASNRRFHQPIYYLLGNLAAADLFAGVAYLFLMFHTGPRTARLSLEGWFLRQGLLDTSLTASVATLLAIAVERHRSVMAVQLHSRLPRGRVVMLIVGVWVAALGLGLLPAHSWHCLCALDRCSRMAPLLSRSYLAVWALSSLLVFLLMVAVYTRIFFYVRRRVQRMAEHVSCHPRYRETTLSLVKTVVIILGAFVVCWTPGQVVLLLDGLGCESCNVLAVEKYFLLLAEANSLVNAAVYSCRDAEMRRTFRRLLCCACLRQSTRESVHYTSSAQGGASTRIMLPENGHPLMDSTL
Description: as §1, §2
as §3, with “To determine antagonist properties, varying concentrations of the compounds were mixed with a constant concentration of LPA and responses were monitored.” left out
(§4) Receptor activation using Ca^2+ mobilization assay. The assay for mobilization of intracellular Ca^2+ was performed as described. Briefly, rat hepatoma RH7777 cells stably expressing human LPA1, LPA2, or LPA3, and CHO cells stably expressing LPA4, were loaded with Fura-2 AM (Molecular Probes). Using a FLEXStation (Molecular Devices, Sunnyvale, Calif.), changes in intracellular Ca^2+ concentration were monitored. Ligand-induced changes in fluorescence were monitored for 80-120 seconds. Ca^2+ transients were quantified automatically by calculating the difference between maximum and baseline ratio values for each sample. […] Each test was performed in quadruplicate. EC50, IC50, and Ki values were calculated as described. The ligand properties of the compounds were evaluated using Ca^2+ mobilization assay for assessing the activation/inhibition of LPA1, LPA2, and LPA3 expressed in RH7777 cells and LPA4 expressed in CHO cells.

[5] = biological target: T5, human LPA3 (Homo sapiens, UniProt Q9UBY5); assay: Ca2+ mobilization assay, LPA3; format: cell-based
T5 construct: expressed in transfected cells
T5 sequence (Q9UBY5 1-353): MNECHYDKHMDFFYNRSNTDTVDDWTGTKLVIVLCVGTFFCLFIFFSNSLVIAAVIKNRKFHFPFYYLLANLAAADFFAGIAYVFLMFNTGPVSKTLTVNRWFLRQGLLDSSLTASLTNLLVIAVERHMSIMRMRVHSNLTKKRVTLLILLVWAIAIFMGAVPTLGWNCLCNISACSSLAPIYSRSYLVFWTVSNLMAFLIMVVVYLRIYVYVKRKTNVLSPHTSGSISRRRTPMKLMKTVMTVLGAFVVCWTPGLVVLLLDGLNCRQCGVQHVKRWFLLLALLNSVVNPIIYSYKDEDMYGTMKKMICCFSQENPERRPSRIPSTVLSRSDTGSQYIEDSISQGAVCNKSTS
Description: as §1, §2
as §3, with “To determine antagonist properties, varying concentrations of the compounds were mixed with a constant concentration of LPA and responses were monitored.” left out
as §4

[6] = biological target: T6, human LPA4 (Homo sapiens, UniProt Q99677); assay: Ca2+ mobilization assay, LPA4 in CHO cells; format: cell-based
T6 construct: expressed in transfected cells
T6 sequence (Q99677 whole entry): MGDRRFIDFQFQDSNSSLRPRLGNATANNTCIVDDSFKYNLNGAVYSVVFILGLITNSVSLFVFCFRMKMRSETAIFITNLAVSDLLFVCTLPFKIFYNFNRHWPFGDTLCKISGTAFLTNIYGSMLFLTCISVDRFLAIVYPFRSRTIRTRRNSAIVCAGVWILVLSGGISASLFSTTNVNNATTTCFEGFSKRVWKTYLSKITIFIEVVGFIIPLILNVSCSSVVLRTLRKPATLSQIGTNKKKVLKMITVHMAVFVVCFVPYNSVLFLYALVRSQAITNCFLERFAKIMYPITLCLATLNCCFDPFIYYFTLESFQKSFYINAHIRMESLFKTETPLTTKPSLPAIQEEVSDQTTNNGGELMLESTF
Description: as §1
Stable transformants of LPA4. CHO cells stably expressing either vector or LPA4 were plated on non-coated 96 well plates at a density of 4×10^4 cells/well and cultured overnight. The following day, cells were loaded with Fura-2 AM for 1 h in modified Krebs buffer containing 2% (v/v) pluronic acid and 2.5 mM probenecid.
as §3, with “To determine antagonist properties, varying concentrations of the compounds were mixed with a constant concentration of LPA and responses were monitored.” left out
as §4

[7] = Emax = (maximal efficacy of compound/maximal efficacy of LPA 18:1) × 100

CCCCCC/C=C\CCCCCCCC(=O)OCC1COP(=O)(O)C1 (centres unmarked) [2ccPA (16:1), 2-carba cyclic phosphatidic acid 16:1, reference compound]
Inhibition (%) of autotaxin (ATX) phosphodiesterase activity [1]: 78.5 ± 2.3%

CCCCCCCC/C=C\CCCCCCCC(=O)OC[C@@H](O)COP(=O)(O)O [LPA (18:1), reference compound]
EC50 [2]: 100 ± 13.2 nM | IC50 [2]: > 30000 nM | PPARγ (PPRE luciferase reporter gene assay) [3]: Ago- | Inhibition (%) of autotaxin (ATX) phosphodiesterase activity [1]: 88.4 ± 1.3%

CCCCCCCC/C=C\CCCCCCCC(=O)OC[C@@H](O)CC(Cl)P(=O)(O)O (mixture of isomers) [Compound 18a, [1-Chloro-3(S)-hydroxyl-4-(oleoyloxy)butyl]-phosphonate]
Emax [2, 7]: 63.2% | EC50 [2]: 528 nM | IC50 [2]: > 30000 nM | EC50 ([4]; RH7777 cells stably expressing LPA2, agonist mode): > 30000 nM | IC50 ([4]; antagonist mode vs 10 nM LPA, PA = partial antagonist): 1690 ± 85 nM | Ki ([4]; antagonist mode vs 10 nM LPA, read-out: LPA2 (Ki)): 845 nM | IC50 ([4]; antagonist of the LPA2 receptor): 1700 nM | Emax [5, 7]: 63.5% | EC50 ([5]; RH7777 cells stably expressing LPA3, agonist mode): > 2670 nM | EC50 ([6]; CHO cells stably expressing LPA4, agonist mode): 3480 ± 561 nM | Emax ([6]; CHO, Emax = (maximal efficacy of compound/maximal efficacy of LPA 18:1) × 100): 40.5% | inhibition at 10 µM ([1]; read-out: Inhibition (%) of autotaxin (ATX) phosphodiesterase activity): 92.5 ± 2.1%
